The source of these data is paper PMC6368365, “Didehydro-Cortistatin A Inhibits HIV-1 by Specifically Binding to the Unstructured Basic Region of Tat” (mBio, 2019).

Assay [1] concerns the target T1, Trp^11 of Tat protein (Human immunodeficiency virus type 1 group M subtype B, UniProt P69697).
T1 construct: pTatC6H-1 (NIH AIDS Reagent Program) plasmid encoding C-terminal 6xHistidine Tat1-86 (HXB3, subtype B); made in house; host or cells: E. coli BL21 (plasmid pTatC6H-1, NIH AIDS Reagent Program)
The assay can be described thus: Trp fluorescence assay of recombinant Tat. It is filed as binding, HIV-1. The note with it: for effect on intrinsic Trp fluorescence of Tat: compound/Tat ratio of 7.5/1. From the text: Next, we investigated whether dCA mediated conformational changes in Tat. NMR studies have reported the fluorescence of Tat’s unique Trp^11 to be highly sensitive to conformational modifications ([2], [15]). As such, we assessed Tat fluorescence between wavelengths of 310 nm and 410 nm (Fig. 5A, left).
FIG 5 dCA stabilizes Tat structure. (A) Trp fluorescence assays. (Left) Schematic of the assay. (Center) DMSO, dCA (7.5× Tat concentration) or raltegravir (Ralt.; 7.5× Tat concentration) was incubated with Tat. The fluorescence of the Trp^11 of Tat protein was measured at the indicated wavelengths. Acrylamide (250 mM) was used as a quenching control of Tat fluorescence. (Right) Peak absorbance (λmax) versus increasing fold ratios of compounds to Tat protein. Data are representative of n = 3 independent experiments. (B) DARTS assays. Tat was incubated with DMSO or dCA, at increasing concentrations, in the presence of increasing concentrations of proteinase K (PK). […] Data are representative of n = 2 independent experiments. (C) Steady state of Tat in the presence of dCA in vivo. HeLa-CD4-LTR-Luc cells were incubated with recombinant Tat and then washed and incubated with the indicated compounds for 6 hours. […] (Left) Western blot representative of n = 4 independent experiments. MG132 was used as a positive control of Tat protection from degradation, and raltegravir was used as a negative control. (Right) Densitometry of the Tat band normalized to the actin band. Results represent the mean ± SEM from n = 4 independent experiments. Statistical significance was determined using one-way ANOVA with post hoc Tukey’s test. ns, not significant; ***, P < 0.0001; **, P < 0.001.
Recombinant Tat (2.5 μM) was incubated with different concentrations of dCA or raltegravir in a 96-well plate. The solution was excited at 280 nm, and the emission of Trp fluorescence was read from 310 to 410 nm. The background induced by the compounds alone or buffer of dilution was subtracted from the Trp signal. Acrylamide (250 mM) was used as a quencher of the fluorescence.

Assay [2] deals with Tat-TAR interaction (Human immunodeficiency virus type 1 group M subtype B, UniProt P69697). The assay can be described thus: ChIP of FLAG-Tat followed by qRT-PCR of TAR in HeLa-CD4-LTR-Luc cells. The note with it: compounds 25 nM, 48 h. The format is cell-based, HIV-1. The arrangement: expressed in transfected cells; host or cells: HeLa-CD4-LTR-Luc. From the text:
FIG 6 dCA binding to Tat disrupts Tat-TAR interaction. (A) EMSA of full-length Tat with TAR in the presence of dCA. Raltegravir (Ralt.) and deleted bulge TAR (ΔTAR) were used as negative controls. Data are representative of n = 3 independent experiments. (B) EMSA of Tat’s basic domain with TAR in the presence of increasing concentrations of dCA to Tat’s basic peptide. Pep B is a peptide encompassing the basic domain of HIV Tat (^45ISYGRKKRRQRRRAP^59). Pep C (^69LSKQPASQPRGDPTG^83) and unlabeled or cold TAR (TARc) were used as negative controls. Neomycin, which binds to Tat and TAR, was used as a positive control. Ratios of compounds (or TARc) concentrations to peptide are shown. Data are representative of n = 3 independent experiments. […] Shown are ITC results from binding of dCA (left) or Tat peptide (right) to TAR at 25°C. […] For the lower plots, results were converted to molar heats and plotted against the molar ratio of dCA or peptide to RNA. […] Luciferase activity was determined relative to protein concentration (Bradford assay) (Fig. S9A). […] Statistical significance was determined using one-way ANOVA with post hoc Tukey’s test with 3 technical replicates. ns, not significant; ***, P < 0.0001. […]
Chromatin immunoprecipitation assay (CHIP). […] The relative proportions of co-immunoprecipitated DNA were determined on the basis of the threshold cycle for qRT-PCR. […]
A general note: Quantitative PCR measures a nucleic acid by following its amplification.

T1 sequence (P69697 whole entry): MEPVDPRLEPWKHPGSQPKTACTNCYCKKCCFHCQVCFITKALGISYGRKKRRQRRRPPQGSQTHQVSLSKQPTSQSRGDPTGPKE
Sequence of Tat-TAR interaction (P69697 whole entry, the tested form may be a part): as the sequence (P69697 whole entry) above

Take `CN(C)C1CC23CCC4(O2)C(=CCC2(C)C(c5ccc6ccncc6c5)=CCC24)C=C3C(O)C1O` (stereo not drawn) [dCA, didehydro-cortistatin A]: the “λmax of Tat Trp fluorescence” value in assay [1] (compound/Tat ratio 7.5/1, Tat alone 360 nm) is 350 nm. Further, the “effect on intrinsic Trp fluorescence of Tat” value in assay [1] is recorded as “decreased intensity of the Trp fluorescence”. Besides, in assay [1] (dCA/Tat ratio of 7.5/1, Tat alone 0.73), the “I330/350 ratio of Tat Trp fluorescence” value is 0.893. The “Tat-TAR interaction in cells (ChIP)” value in assay [2] is on record as “reduced this Tat-TAR interaction to similar levels as FLAG-Tat Mut”.
Regarding `Cc1nnc(C(=O)NC(C)(C)c2nc(C(=O)NCc3ccc(F)cc3)c(O)c(=O)n2C)o1` [raltegravir, reference compound], the “effect on intrinsic Trp fluorescence of Tat” value in assay [1] is recorded as “no effect on the intrinsic fluorescence of Tat”. Further, the “Tat-TAR interaction in cells (ChIP)” value in assay [2] was “A Tat-TAR interaction was detected”.
